Results published in patent publication US20250388605A1, “HETEROBIFUNCTIONAL COMPOUNDS AND METHODS OF TREATING DISEASE” (Halda Therapeutics OpCo, Inc., priority 2022, published 2025).

How the values were obtained:
[1] = test system: T-Rex 293 cell line SC3 cells having increased expression of androgen receptor protein due to exposure to doxycycline; test: Cellular growth inhibition, T-Rex 293 SC3 cells with doxycycline (increased androgen receptor expression), CellTiter-Glo; type: cell-based; settings: T-Rex 293 SC3 cells with 10 ng/mL doxycycline (increased androgen receptor expression), 72 hours, CellTiter-Glo 2.0
How it was run: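 Growth inhibition is measured in an inducible AR-expressing T-Rex 293 clone, SC3, cultured with or without 10 ng/mL doxycycline in hormone-depleted medium. Test compounds are applied for 72 hours. GI50 values derive from CellTiter-Glo 2.0 signal fitted by four-parameter regression.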

T47D cells = test: Cellular Growth Inhibition Assay for T47D Cells (CellTiter-Glo); type: cell-based, human; settings: 72 hours
How it was run: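 GI50 values derive from four-parameter regression of CellTiter-Glo 2.0 luminescence, using zero luminescence as baseline. Human breast cancer T47D cells (3000/well; DMEM, 10% FBS, 0.2 units/mL insulin) were exposed for 72 h to compound dilutions at 0.5% DMSO, with dosing starting 24 h after seeding.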

SMILES	GI50 [1]	GI50 (T47D cells; Homo sapiens)	GI50 (T47D cells)
Cn1cc(-c2cc(C(C)(C)O)ccc2Oc2cccc(N3CC4(CN(c5ncc(C(=O)N[C@H]6C(C)(C)[C@H](Oc7ccc(C#N)c(Cl)c7)C6(C)C)cn5)CCO4)C3)c2F)c2cc[nH]c2c1=O [Compound I-216]	< 500 nM	< 500 nM	–
Cn1cc(-c2cc(C(C)(C)O)ccc2Oc2ccc(N3CC4(C3)CN(c3ncc(C(=O)N[C@H]5C(C)(C)[C@H](Oc6ccc(C#N)c(Cl)c6)C5(C)C)cn3)CCO4)cc2)c2cc[nH]c2c1=O [Compound I-212]	< 500 nM	–	500 to 1500 nM
Cn1cc(-c2cc(C(C)(C)O)ccc2Oc2cccc(CCOC3CCN(c4ncc(C(=O)N[C@H]5C(C)(C)[C@H](Oc6ccc(C#N)c(Cl)c6)C5(C)C)cn4)CC3)c2)c2cc[nH]c2c1=O [Compound I-193]	< 500 nM	–	< 500 nM
Cn1cc(-c2cc(C(C)(C)O)ccc2Oc2ccc(CCC3CCN(c4ncc(C(=O)N[C@H]5C(C)(C)[C@H](Oc6ccc(C#N)c(Cl)c6)C5(C)C)cn4)CC3)cc2)c2cc[nH]c2c1=O [Compound I-203]	< 500 nM	500 to 1500 nM	–
Cn1cc(-c2cc(C(C)(C)O)ccc2Oc2cccc(CCCN3CCN(c4ncc(C(=O)N[C@H]5C(C)(C)[C@H](Oc6ccc(C#N)c(Cl)c6)C5(C)C)cn4)CC3)c2F)c2cc[nH]c2c1=O [Compound I-143]	< 500 nM	500 to 1500 nM	–
CN(CC1CCN(c2ncc(C(=O)N[C@H]3C(C)(C)[C@H](Oc4ccc(C#N)c(Cl)c4)C3(C)C)cn2)CC1)C1(c2ccc(Oc3ccc(C(C)(C)O)cc3-c3cn(C)c(=O)c4[nH]ccc34)cc2)COC1 [Compound I-255]	< 500 nM	–	< 500 nM
Cn1cc(-c2cc(C(C)(C)O)ccc2Oc2ccc(CCOC3CCN(c4ncc(C(=O)N[C@H]5C(C)(C)[C@H](Oc6ccc(C#N)c(Cl)c6)C5(C)C)cn4)CC3)cc2)c2cc[nH]c2c1=O [Compound I-194]	< 500 nM	500 to 1500 nM	–
CC(C)N(C1CCN(c2ncc(C(=O)N[C@H]3C(C)(C)[C@H](Oc4ccc(C#N)c(Cl)c4)C3(C)C)cn2)CC1)C1CN(c2cccc(Oc3ccc(C(C)(C)O)cc3-c3cn(C)c(=O)c4[nH]ccc34)c2F)C1 [Compound I-221]	< 500 nM	500 to 1500 nM	–
CCS(=O)(=O)Nc1ccc(Oc2cccc(OCCOC3CCN(c4ncc(C(=O)N[C@H]5C(C)(C)[C@H](Oc6ccc(C#N)c(Cl)c6)C5(C)C)cn4)CC3)c2)c(-c2cn(C)c(=O)c3c2ccn3C)c1 [Compound I-121]	< 500 nM	500 to 1500 nM	–
CCS(=O)(=O)c1ccc(Oc2ccc(OCC3CCN(c4ncc5c(n4)CN([C@H]4C(C)(C)[C@H](Cc6ccc(C#N)c(Cl)c6)C4(C)C)C5=O)CC3)cc2)c(-c2cn(C)c(=O)c3[nH]ccc23)c1 [Compound I-220]	< 500 nM	< 500 nM	–
CCS(=O)(=O)Nc1ccc(Oc2cccc(N3CC4(CN(CC5CCN(c6ncc(C(=O)N[C@H]7C(C)(C)[C@H](Oc8ccc(C#N)c(Cl)c8)C7(C)C)cn6)CC5)C4)C3)c2)c(-c2cn(C)c(=O)c3[nH]ccc23)c1 [Compound I-35, N-((1r, 3r)-3-(3-chloro-4-cyanophenoxy)-2,2,4,4-tetramethylcyclobutyl)-2-(4-((6-(3-(4-(ethylsulfonamido)-2-(6-methyl-7-oxo-6,7-dihydro-1H-pyrrolo[2,3-c]pyridin-4-yl)phenoxy)phenyl)-2,6-diazaspiro[3.3]heptan-2-yl)methyl)piperidin-1-yl)pyrimidine-5-carboxamide]	< 500 nM	< 500 nM	–
CCS(=O)(=O)Nc1ccc(Oc2cccc(N3CC(N4CCN(c5ncc(C(=O)N[C@H]6C(C)(C)[C@H](Oc7ccc(C#N)c(Cl)c7)C6(C)C)cn5)CC4)C3)c2)c(-c2cn(C)c(=O)c3[nH]ccc23)c1 [Compound I-75]	< 500 nM	< 500 nM	–
Cn1cc(-c2cc(C(C)(C)O)ccc2Oc2cccc(OCCN3CCN(c4ncc(C(=O)N[C@H]5C(C)(C)[C@H](Oc6ccc(C#N)c(Cl)c6)C5(C)C)cn4)CC3)c2F)c2cc[nH]c2c1=O [Compound I-99]	< 500 nM	500 to 1500 nM	–
Cn1cc(-c2cc(C(C)(C)O)ccc2Oc2cccc(N3CC(N4CCN(c5ncc(C(=O)N[C@H]6C(C)(C)[C@H](Oc7ccc(C#N)c(Cl)c7)C6(C)C)cn5)CC4)C3)c2F)c2cc[nH]c2c1=O [Compound I-92, N-((1r, 3r)-3-(3-chloro-4-cyanophenoxy)-2,2,4,4-tetramethylcyclobutyl)-2-(4-(1-(2-fluoro-3-(4-(2-hydroxypropan-2-yl)-2-(6-methyl-7-oxo-6,7-dihydro-1H-pyrrolo[2,3-c]pyridin-4-yl)phenoxy)phenyl)azetidin-3-yl)piperazin-1-yl)pyrimidine-5-carboxamide]	< 500 nM	< 500 nM	–
Cn1cc(-c2cc(C(C)(C)O)ccc2Oc2cccc(CCCN3CCN(c4ncc(C(=O)N[C@H]5C(C)(C)[C@H](Oc6ccc(C#N)c(Cl)c6)C5(C)C)cn4)CC3)c2)c2cc[nH]c2c1=O [Compound I-110]	< 500 nM	< 500 nM	–
CCS(=O)(=O)Nc1ccc(Oc2cccc(OC3CCC4(CC3)CCN(c3ncc(C(=O)N[C@H]5C(C)(C)[C@H](Oc6ccc(C#N)c(Cl)c6)C5(C)C)cn3)CC4)c2)c(-c2cn(C)c(=O)c3[nH]ccc23)c1 [Compound I-45]	< 500 nM	< 500 nM	–
Cn1cc(-c2cc(C(C)(C)O)ccc2Oc2ccc(CCCC3CC4(C3)CN(c3ncc(C(=O)N[C@H]5C(C)(C)[C@H](Oc6ccc(C#N)c(Cl)c6)C5(C)C)cn3)C4)cc2)c2cc[nH]c2c1=O [Compound I-268]	< 500 nM	< 500 nM	–
CCS(=O)(=O)N(C)c1ccc(Oc2cccc(N3CCN(C4CN(c5ncc(C(=O)N[C@H]6C(C)(C)[C@H](Oc7ccc(C#N)c(Cl)c7)C6(C)C)cn5)C4)CC3)c2)c(-c2cn(C)c(=O)c3[nH]ccc23)c1 [Compound I-118]	< 500 nM	< 500 nM	–
Cn1cc(-c2cc(C(C)(C)O)ccc2Oc2ccc(N3CC(CC4CN(c5ncc(C(=O)N[C@H]6C(C)(C)[C@H](Oc7ccc(C#N)c(Cl)c7)C6(C)C)cn5)C4)C3)cc2)c2cc[nH]c2c1=O [Compound I-280]	< 500 nM	< 500 nM	–
CC(C)N(CC1CCN(c2ncc(C(=O)N[C@H]3C(C)(C)[C@H](Oc4ccc(C#N)c(Cl)c4)C3(C)C)cn2)CC1)[C@H]1C[C@H](Oc2cccc(Oc3ccc(C(C)(C)O)cc3-c3cn(C)c(=O)c4[nH]ccc34)c2F)C1 [Compound I-214]	< 500 nM	< 500 nM	–
Cn1cc(-c2cc(N)ccc2Oc2cccc(OCCN3CCN(c4ncc(C(=O)N[C@H]5C(C)(C)[C@H](Oc6ccc(C#N)c(Cl)c6)C5(C)C)cn4)CC3)c2F)c2cc[nH]c2c1=O [Compound I-100]	< 500 nM	1500 to 3000 nM	–
Cn1cc(-c2ccccc2Oc2cccc(OCCN3CCN(c4ncc(C(=O)N[C@H]5C(C)(C)[C@H](Oc6ccc(C#N)c(Cl)c6)C5(C)C)cn4)CC3)c2)c2cc[nH]c2c1=O [Compound I-98]	< 500 nM	< 500 nM	–
CN(c1ccc(Oc2cccc(N3CC(N4CCN(c5ncc(C(=O)N[C@H]6C(C)(C)[C@H](Oc7ccc(C#N)c(Cl)c7)C6(C)C)cn5)CC4)C3)c2)c(-c2cn(C)c(=O)c3[nH]ccc23)c1)S(=O)(=O)C1CC1 [Compound I-88, N-((1r, 3r)-3-(3-chloro-4-cyanophenoxy)-2,2,4,4-tetramethylcyclobutyl)-2-(4-(1-(3-(2-(6-methyl-7-oxo-6,7-dihydro-1H-pyrrolo[2,3-c]pyridin-4-yl)-4-(N-methylcyclopropanesulfonamido)phenoxy)phenyl)azetidin-3-yl)piperazin-1-yl)pyrimidine-5-carboxamide]	< 500 nM	500 to 1500 nM	–
